Experimental data from US20050089470A1, “Labeled peptides for lectin-like oxidized low-density lipoprotein receptor (LOX-1)” (priority 2003, published 2005).
Ends that are not written are not given here. Fl = fluorescein

Tested on: human coronary artery endothelial cells (HCAE)
Assay: Binding of fluorescein-labeled ligands to HCAE cells, imaged by laser confocal fluorescence microscopy
Assay type: cell-based
Conditions: HCAE cells known to express LOX-1; about 10 μL of 1 mg/ml labeled ligand, incubated 1 hour, washed three times
Method: Images in the assay may be acquired using a laser confocal microscope or an Imager. For example, images of peptides bound to cells can be obtained using a laser confocal microscope as follows: HCAE cells can be grown on high quality borosilicate 8-chambered glass slides (Electron Microscopy Sciences, Fort Washington, Pa.). Then, about 10 μL of 1 mg/ml of an aqueous solution of a labeled peptide can be added to the cells and incubated for 1 hour. Subsequently, the cells preferably are washed with HBSS buffer three times. The cells then can be fixed with 4% formaldehyde solution over 10 minutes. After a final wash with buffer, the slide is imaged. Images preferably are acquired using an OLYMPUS laser scanning confocal microscope, model Fluoview 300, using Ar-ion laser (selecting 488 nm line) and a 510-nm long-pass filter. Images can be acquired using two channels: reflected light and fluorescent mode channel, or an overlay of both channels.
The experimental conditions for imaging the peptide-labeled HCAECs are described previously.
The image was obtained using a laser confocal microscope as follows: HCAE cells were laid on and grown in wells on a standard commercial 96-well plate (Becton-Dickenson, Franklin Lakes, N.J.). Then, about 10 μL of 1 mg/ml labeled antibody aqueous solution was added to the cells and incubated for 1 hour. […]

Substance	binding / localization on HCAECs (fluorescent confocal image)
Fl-KGKG-QPLFTPQ (Fl-KGKGQPLFTPQ) [comparative peptide]	weaker binding affinity
Fl-KKGG-FQTPPQL (Fl-KKGGFQTPPQL)	localized on the cells
